# Measurements as given in article PMC12264943, “Identification of New Human P2X7 Antagonists Using Ligand- and Structure-Based Virtual Screening” (Journal of Chemical Information and Modeling, 2025).
# Molecular target: T1, hP2X7 (Homo sapiens, UniProt Q99572)
# T1 construct: expressed in transfected cells; host or cells: HEK-293, stably transfected (gift of E. Adinolfi's group, Ferrara University)
# T1 sequence (Q99572 1-595): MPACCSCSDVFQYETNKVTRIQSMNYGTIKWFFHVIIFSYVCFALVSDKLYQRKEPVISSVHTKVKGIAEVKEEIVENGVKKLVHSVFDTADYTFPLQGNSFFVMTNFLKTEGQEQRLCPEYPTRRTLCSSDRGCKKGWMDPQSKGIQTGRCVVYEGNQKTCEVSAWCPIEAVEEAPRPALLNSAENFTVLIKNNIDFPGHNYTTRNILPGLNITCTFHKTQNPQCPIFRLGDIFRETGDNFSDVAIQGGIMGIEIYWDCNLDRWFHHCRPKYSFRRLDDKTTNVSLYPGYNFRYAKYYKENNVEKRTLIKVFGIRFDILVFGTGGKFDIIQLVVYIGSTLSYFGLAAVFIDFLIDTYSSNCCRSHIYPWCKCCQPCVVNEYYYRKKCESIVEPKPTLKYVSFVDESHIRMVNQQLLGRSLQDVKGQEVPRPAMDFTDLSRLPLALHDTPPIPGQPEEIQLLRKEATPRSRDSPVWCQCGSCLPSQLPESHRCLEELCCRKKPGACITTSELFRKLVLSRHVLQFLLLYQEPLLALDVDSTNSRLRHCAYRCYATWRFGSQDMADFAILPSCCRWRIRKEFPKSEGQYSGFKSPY
# Experiment: YO-PRO 1 dye uptake assay, 1321 N1 cells stably transfected with hP2X7
# Type: cell-based
# Conditions: for activity in YO-PRO 1 dye uptake screen / reduction of P2X7 activation: compound 30 μM, 700 μM ATP; for reduction of P2X7 activation: 0.3% DMSO
# Description: Astrocytoma 1321 N1 (established by Dr. Gaia Pasqualetto) and HEK-293 (kindly gifted by E. Adinolfi’s group, Ferrara University) both stably transfected with hP2X7, were used to assess the activity of the small molecules selected from the VS. Cells were maintained in DMEM:F12 (PanBiotech) supplemented with 10% FBS, 1% pen-strep, and 150 μg/mL G418 (PanBiotech).
# Astrocytoma 1321 N1 cells (2–2.5 × 10^4 cells/well) and HEK-293 cells (4–5 × 10^4 cells/well) expressing hP2X7 were seeded in poly-L-lysine-coated 96-well plates (Sarstedt) 24 h before the experiment. YO-PRO 1 dye was prepared at 5 μM in extracellular solution with low divalent cations (ECS-LD) buffer (147 mM NaCl, 10 mM HEPES, 13 mM glucose, 0.2 mM CaCl2, 2 mM KCl, pH 7.4) and added to cells after washing them with Dulbecco’s phosphate- buffered saline (DPBS) (PanBiotech) and incubated for 20 min at 37 °C. ATP-induced dye uptake, mediated by hP2X7 activation, was monitored using a Clariostar plate reader (excitation: 485 nm; emission: 538 nm) for 30 cycles (75–150 s/cycle), after recording the baseline for five cycles. hP2X7 activation was quantified at cycle 10 by calculating the fluorescence intensity (FI) ratio (Δ(Fcycle 10–F cycle 1)/cycle time).
# The P2X7 receptor, besides being a ligand-gated ion channel, forms large membrane pores following prolonged exposure to high concentrations of ATP, leading to apoptosis (Mackenzie et al. 2005). The YO-PRO 1 dye uptake assay, which measures dye influx through these pores, was selected as the primary screen. The fluorescence of YO-PRO 1 increases when it binds to DNA, enabling real-time monitoring of P2X7 activation (calculated as the rate of increase in fluorescence as YO-PRO 1 binds nuclear DNA).
# The screening compounds were tested at 30 μM (0.3% DMSO) in 5 μM YO-PRO 1 dye diluted in freshly prepared ECS-LD buffer. Cells pretreated with the screening compounds were challenged with 700 μM ATP, and the fluorescence intensities were recorded. The negative control consisted of cells treated with 0.3% DMSO, while the positive control was 0.1 μM JNJ47965567, a selective P2X7 antagonist. ,
# 2 Initial screening assays to identify hit compounds. (A) The compounds were screened at 30 μM in the YO-PRO 1 dye uptake using 1321 N1 cells stably transfected with hP2X7. Compound activity was evaluated along a time of 20 min (75 s per cycle) after ATP addition (700 μM). The fluorescence intensity (FI) values of the first 10 cycles were considered for assessing their ability to inhibit hP2X7. Compound responses were normalized to the fluorescent signal recorded on 0.3% DMSO cells treated with 700 μM ATP of each plate. […] (B) Compounds screened at 10 μM using MPR using 1321 N1 cells stably transfected with hP2X7. The compound activity was evaluated for 5 min after ATP addition (15 s per cycle). The fluorescence intensity recorded in the first cycles (before reaching a plateau response) was considered for assessing the small molecule’s ability to inhibit hP2X7. Compound responses were normalized to the fluorescence signal recorded on 0.1% DMSO cells treated with 700 μM ATP of each plate. […] One-way ANOVA and Dunnet test were used for statistical analysis (****P < 0.0001), (*P < 0.02).
smiles,measurement,setting,value
O=C(CSc1ccccc1C(=O)Nc1ccnn1Cc1cccnc1)Nc1ccc2c(c1)OCO2 [Compound 9],activity in YO-PRO 1 dye uptake screen,,antagonist activity
same,reduction of P2X7 activation,,at least 50%
"Nc1ncnc2c1ncn2[C@@H]1O[C@H](COP(=O)(O)OP(=O)(O)OP(=O)(O)O)[C@@H](O)[C@H]1O [ATP, reference compound]",Hill Slope of ATP concentration-response curve,"YO-PRO 1 uptake, 1321 N1 hP2X7 cells",1.161
same,EC50,"YO-PRO 1 uptake, 1321 N1 hP2X7 cells, ATP 1 μM to 10 mM",697 ± 203 µM
O=C(NCCc1ccccc1)NC(Cc1ccc2c(c1)OCO2)Cc1ccc2c(c1)OCO2 [Compound 2],activity in YO-PRO 1 dye uptake screen,,antagonist activity
same,reduction of P2X7 activation,,at least 50%
